Assay results reported in PMC11233548 (Communications Biology, 2024).
Non-standard residues stand in square brackets, D forms with d. Residues, ends and D or L forms follow the SMILES beside them. AEEA = NCCOCCOCC(=O)O

Columns and labels:
RBD of Raf proteins = target: RBD of Raf proteins; design: method as in PMID 27087647; conditions: direct binding; read-out: KD, Gal1 to RBD of Raf proteins; cited from earlier work
Gal1 = target: Gal1; design: method as in PMID 24569991, PMID 7890630; conditions: dimerization; read-out: KD, Gal1 dimer; cited from earlier work
A-RBD-D75A = assay: BRET-titration Gal1/A-RBD-D75A; type: cell-based, human; conditions: versus wild-type, n = 3
Procedure: We employed the BRET2 system where RLuc8 and GFP2 luminophores were predominantly used as the donor and acceptor, respectively, with coelenterazine 400a as the substrate. A CLARIOstar plate reader from BMG Labtech was used for BRET and fluorescence intensity measurement. The BRET protocol was adapted as described by us[73].
In brief, 150,000–200,000 HEK293-EBNA cells were seeded per well of a 12-well plate and grown for 24 h in 1 mL of complete DMEM. The next day, the cells were transfected with ~1 µg of plasmid DNA per well using a 3 µL jetPRIME transfection reagent. For the donor saturation titration, 25 ng of the donor plasmid was transfected with an acceptor plasmid concentration ranging from 25 to 1000 ng. […]
First, the fluorescence intensity of GFP2 was measured (λexcitation 405 ± 10 nm and λemission 515 ± 10 nm), which is directly proportional to the acceptor expression (RFU). Then 10 µM of coelenterazine 400a (GoldBio, #C-320) was added to the cells, and BRET readings were recorded simultaneously at λemission 410 ± 40 nm (RLU) and 515 ± 15 nm (BRET signal). Emission intensity measured at 410 nm is directly proportional to the donor expression. The raw BRET ratio was calculated as the ratio of BRET signal/RLU. […] The relative expression was calculated as the ratio of RFU/RLU. […]

B-Raf = assay: Split-luciferase KinCon B-Raf biosensor; type: cell-based; conditions: expression 48 h, HEK cells; n = 3
Procedure: HEK 293-EBNA cells were seeded in a 12-well plate (Greiner Bio-One, #665180) in 1 ml complete DMEM and grown for 24 h. The next day 0.5 µg of KinCon sensor plasmid pcDNA-RlucF1-BRAF-RlucF2 was transfected along with 0.1–0.5 µg of modulator plasmid encoding either SNAP-H-RasG12V or Gal1) using jetPRIME as per manufacturer protocol; pcDNA3.1(−) Thermo Fisher Scientific, #V79520) was used to buffer the total amount of plasmid load per well to 1 µg. After 48 h of expression cells were collected and washed in PBS. Cells from one well of the 12-well plate were resuspended in 200 µL of PBS and 2× 90 µL were pipetted into a white 96-well plate (Nunc, Thermo Fisher Scientific, #236108). Then coelenterazine h was added to a final concentration of 5 µM and the luminescence signal at 480 ± 10 nm was collected for 10 s. The basically background-free signal was normalized against the signal without modulator plasmid.

H-RasG12V nanoclustering = assay: H-RasG12V nanoclustering-BRET in HEK cells; type: cell-based, human
B-RBD = target: T1, B-RBD (Homo sapiens, UniProt P15056); assay: QRET assay, Eu-L5URcore binding to B-RBD; conditions: Eu-L5URcore (29 nM), B-RBD twofold dilutions, MT2 quencher, 10 mM HEPES pH 7.4, 10 mM NaCl, 30 min, ~22 °C, time-resolved luminescence, n = 2, read-out: IC50
T1 construct: GST-tagged B-Raf-RBD (residues 155–227 of human B-Raf); GST (N); made in house; host or cells: E. coli BL21 Star (DE3)pLysS
Procedure: The QRET assays were modified from our previously described quenching luminescence assays[69]–[71]. Ac-K-L5URcore was conjugated with nonadentate europium chelate, {2,2′,2′′,2’“-{[4′-(4’“-isothiocyanatophenyl)-2,2′,6′,2′′-terpyridine-6,6′′-diyl]bis(methylene-nitrilo)}tetrakis(acetate)}europium(III) (QRET Technologies, Finland) via the epsilon amine of the N-terminal lysine that was added to the L5UR-core peptide sequence and purified with analytical reverse-phase HPLC. The current homogeneous QRET binding assay is based on the quenching of non-bound Eu-K-L5URcore with MT2 quencher (QRET Technologies), while bound labeled peptide is luminescent. In the assay, purified B-RBD or Gal1 were twofold diluted in an assay buffer containing 10 mM HEPES pH 7.4 and 10 mM NaCl added in 5 μL to a white low-volume, round bottom 384-well plate. Eu-K-L5UR core peptide (29 nM), mixed with MT2 according to the manufacturer’s instructions in the assay buffer supplemented with 0.01% (v/v) Triton X-100, was added in 5 μL volume to wells, and incubated for 30 min at ~22 °C on a shaker. The luminescence was measured with Tecan Spark multimode microplate reader (Tecan, Austria) in time-resolved mode using λexcitation 340 ± 40 nm and λemission 620 ± 10 nm with 800 μs delay and 400 μs window times.

GST-B-RBD = GST-B-RBD (Homo sapiens, UniProt P15056); assay: Competitive fluorescence polarization, displacement of F-L5UR from GST-B-RBD; type: binding; conditions: competitive fluorescence polarization with F-L5UR; Fig. 2e: F-L5UR (10 nM), GST-B-RBD (15 µM); method: 5 nM F-L5UR, 200 nM RBD; pH 7.4; 30 min, ~22 °C; n = 3
C-RBD = target: T2, C-RBD (Homo sapiens, UniProt P04049); assay: Competitive fluorescence polarization, displacement of F-L5UR from C-RBD; type: binding; conditions: F-L5UR (5 nM), C-RBD (200 nM), pH 7.4, 30 min, ~22 °C, n = 3
T2 construct: GST-tagged C-Raf-RBD (residues 50–134 of human C-Raf); GST (N, cleaved yes); made in house; host or cells: E. coli BL21 Star (DE3)pLysS

[1] = tested on: MIA PaCa-2 cells (pERK, pAkt); assay: Immunoblot of EGF-induced pERK and pAkt in MIA PaCa-2; type: cell-based, human; conditions: 2 h, EGF 200 ng/mL 10 min; KRAS-G12C; n = 3–8
T24 cells (pERK, pAkt) = type: cell-based, human; conditions: n = 3–8
Hs 578 T cells = assay: 2D cell viability (alamarBlue), Hs 578 T; type: cell-based, human; conditions: 48 h treatment, n = 3
T24 cells = assay: 2D cell viability (alamarBlue), T24; type: cell-based, human; conditions: 48 h treatment, n = 3
MIA PaCa-2 cells = assay: 2D cell viability (alamarBlue), MIA PaCa-2; type: cell-based, human; conditions: 48 h treatment, n = 3
Gal1/B-RBD = Gal1/B-RBD (Homo sapiens, UniProt P15056); assay: Gal1/B-RBD BRET in HEK cells; type: cell-based
HEK cells (pERK, pAkt) = type: cell-based, human; conditions: 2 h, EGF 200 ng/mL 10 min; n = 3–8
[2] = tested on: Hs 578 T cells (pERK, pAkt); assay: Immunoblot of EGF-induced pERK and pAkt in Hs 578 T; type: cell-based, human; conditions: 1–20 µM, 2 h, EGF 200 ng/mL 10 min; HRAS-G12D; n = 3–8
[3] = tested on: Hs 578 T, T24, MIA PaCa-2, and HEK cells; assay: Drug sensitivity score DSS3 from viability data; type: cell-based, human; conditions: 48 h; Fig. 6e
Procedure: The cells were seeded in low attachment, suspension cell culture 96-well plates (Greiner, #655185). About 2000 T24, MIA PaCa-2, and HEK cells and 5000 Hs 578 T cells were seeded per well in a 50 µL complete growth medium. 24 h later, the cells were treated with 50 µL 2× peptide diluted in the growth medium or 0.2% (v/v) of the positive control, benzethonium chloride stock at 100 mM in H2O (Sigma-Aldrich, #B8879). […] Using a CLARIOstar plate reader the fluorescence signal (λexcitation 560 ± 5 nm and λemission 590 ± 5 nm) was recorded. The florescence signal was normalized against the negative control, here DMSO in buffer, representing 100% viability. Additionally, the data was analyzed using Breeze 2.0 to determine a drug sensitivity score (DSS), a normalized area under the curve (AUC). Here we plot only one of the output values from the Breeze pipeline, the DSS3 value, which was calculated as DSS3=DSS2x2−x1/Cmax−Cmin where DSS2 is given by the equation DSS2=DSS1/loga
And DSS1 is given by the equation DSS1=AUC−t(x2−x1)/(100−t)(Cmax−Cmin)
After dose–response inhibition data fitting with a logistic function, the area under the curve (AUC) was determined. The activity threshold (t) was set to ≥10%. The maximum (Cmax) and minimum (Cmin) concentrations used for screening of the inhibitors, with Cmax = x2 and x1 concentration with minimal activity t. […]

Gal1/B-RBD, sequence (P15056 155-227): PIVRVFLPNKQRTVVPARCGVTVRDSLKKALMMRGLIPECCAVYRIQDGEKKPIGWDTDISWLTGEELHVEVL
GST-B-RBD, sequence (P15056 155-227): as above
T1 sequence (P15056 155-227): as above

Gal1: galectin-1, H-Ras nanocluster scaffold
Kd (RBD of Raf proteins): 0.106 ± 0.04 µM
Kd (Gal1): 7 µM
BRETtop, Gal1/A-RBD-D75A (A-RBD-D75A): significantly reduced
luminescence signal of KinCon B-Raf biosensor (B-Raf): likewise reduced the luminescence signal
effect of Gal1 expression on H-RasG12V nanoclustering-BRET (H-RasG12V nanoclustering; expression 48 h, donor:acceptor 1:5, n = 4): increased H-RasG12V nanoclustering-BRET in a dose-dependent manner

CC(=O)N[C@@H](CO)C(=O)N[C@@H](CCCNC(=N)N)C(=O)N[C@@H](CO)C(=O)N[C@@H](CO)C(=O)N[C@@H](CC(C)C)C(=O)N[C@@H](CCCNC(=N)N)C(=O)N[C@@H](CO)C(=O)N[C@@H](CCCNC(=N)N)C(=O)N[C@@H](Cc1c[nH]c2ccccc12)C(=O)NCC(=O)N[C@@H](CCCNC(=N)N)C(=O)N[C@@H](Cc1ccccc1)C(=O)N[C@@H](CC(C)C)C(=O)N[C@@H](CC(C)C)C(=O)N[C@@H](CCC(N)=O)C(=O)N[C@@H](CCCNC(=N)N)C(=O)NCC(=O)N[C@@H](CO)C(=O)N[C@@H](Cc1c[nH]c2ccccc12)C(=O)N[C@H](C(=O)NCC(=O)N1CCC[C@H]1C(=O)N[C@@H](CCCNC(=N)N)C(N)=O)[C@@H](C)O [L5URcore] (Ac-SRSSLRSRWGRFLLQRGSWTGPR-NH2)
EC50 (B-RBD binding to Eu-L5URcore) (B-RBD): 18 ± 1 µM
IC50 (GST-B-RBD): 41 ± 1 µM
IC50 (C-RBD): 14 ± 6 µM

CC(=O)NCC(=O)N[C@@H](CCCNC(=N)N)C(=O)N[C@@H](CCCCN)C(=O)N[C@@H](CCCCN)C(=O)N[C@@H](CCCNC(=N)N)C(=O)N[C@@H](CCCNC(=N)N)C(=O)N[C@@H](CCC(N)=O)C(=O)N[C@@H](CCCNC(=N)N)C(=O)N[C@@H](CCCNC(=N)N)C(=O)N[C@@H](CCCNC(=N)N)C(=O)N1CCC[C@H]1C(=O)N[C@@H](CCC(N)=O)C(=O)NCCOCCOCC(=O)N[C@@H](CO)C(=O)N[C@@H](CCCNC(=N)N)C(=O)N[C@@H](CO)C(=O)N[C@@H](CO)C(=O)N[C@@H](CC(C)C)C(=O)N[C@@H](CCCNC(=N)N)C(=O)N[C@@H](CO)C(=O)N[C@@H](CCCNC(=N)N)C(=O)N[C@@H](Cc1c[nH]c2ccccc12)C(=O)NCC(=O)N[C@@H](CCCNC(=N)N)C(=O)N[C@@H](Cc1ccccc1)C(=O)N[C@@H](CC(C)C)C(=O)N[C@@H](CC(C)C)C(=O)N[C@@H](CCC(N)=O)C(=O)N[C@@H](CCCNC(=N)N)C(=O)NCC(=O)N[C@@H](CO)C(=O)N[C@@H](Cc1c[nH]c2ccccc12)C(=O)N[C@H](C(=O)NCC(=O)N1CCC[C@H]1C(=O)N[C@@H](CCCNC(=N)N)C(N)=O)[C@@H](C)O [TAT-L5URcore] (Ac-GRKKRRQRRRPQ[AEEA]SRSSLRSRWGRFLLQRGSWTGPR-NH2)
pAkt levels, MIA PaCa-2 [1]: pAkt-levels were reduced at 20 µM
pERK levels, MIA PaCa-2 [1]: pERK remained unaffected
EGF-induced pAkt levels, T24 (T24 cells (pERK, pAkt)): reduced EGF-induced cellular pERK-and pAkt-levels in a dose-dependent manner
EGF-induced pERK levels, T24 (T24 cells (pERK, pAkt)): reduced EGF-induced cellular pERK-and pAkt-levels in a dose-dependent manner
proliferation/viability, Hs 578 T (Hs 578 T cells): specifically reduced by TAT-L5URcore
proliferation/viability, T24 (T24 cells): specifically reduced by TAT-L5URcore
proliferation/viability, MIA PaCa-2 (MIA PaCa-2 cells): this was also observed for KRAS-mutant MIA PaCa-2
EC50 (Gal1/B-RBD): 16 ± 1 µM
pAkt levels, HEK (HEK cells (pERK, pAkt)): slightly induced by TAT-L5URcore, as were pAkt-levels
pERK levels, HEK (HEK cells (pERK, pAkt)): slightly induced
EC50 (H-RasG12V nanoclustering; peptide added to HEK cells, 2 h incubation, 37 °C, donor:acceptor 1:5, 200 ng Gal1 plasmid, n = 3): 19 ± 1 µM
EGF-induced pAkt levels, Hs 578 T [2]: reduced EGF-induced cellular pERK-and pAkt-levels in a dose-dependent manner
EGF-induced pERK levels, Hs 578 T [2]: reduced EGF-induced cellular pERK-and pAkt-levels in a dose-dependent manner
anti-proliferative effect (DSS3) [3]: higher anti-proliferative effect of TAT-L5URcore as compared to TAT-mutL5URcore
